According to PMC10216478, “Development of a Non-Peptide Angiotensin II Type 1 Receptor Ligand by Structural Modification of Olmesartan as a Biased Agonist” (Biomedicines, 2023):
Numbering of substitutions follows the chain as printed.

Legend:
[1] = target: T1, AT1 L112A receptor (Rattus norvegicus, UniProt P25095, L112A); assay: Competition binding study, 125I-[Sar1,Ile8]Ang II, AT1 L112A receptor; conditions: competition with 125I-[Sar1,Ile8]Ang II, n = 3, mean ± standard error, read-out: Binding affinity (Kd)
T1 construct: expressed in transfected cells; host or cells: COS7
T1 sequence (P25095 1-359 L112A): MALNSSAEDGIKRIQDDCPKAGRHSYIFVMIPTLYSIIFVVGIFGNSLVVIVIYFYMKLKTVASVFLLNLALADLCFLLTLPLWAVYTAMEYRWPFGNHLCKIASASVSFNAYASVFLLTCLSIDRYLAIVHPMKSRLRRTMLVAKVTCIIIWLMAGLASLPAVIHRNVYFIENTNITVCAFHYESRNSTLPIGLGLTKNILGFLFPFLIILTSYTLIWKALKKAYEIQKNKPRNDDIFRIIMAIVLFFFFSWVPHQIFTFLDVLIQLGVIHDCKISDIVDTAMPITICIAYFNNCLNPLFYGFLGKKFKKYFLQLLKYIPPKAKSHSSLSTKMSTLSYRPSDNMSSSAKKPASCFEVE
Excerpt: We mutated four amino acids in transmembrane (TM) III, VI, and VII in the AT1 receptor (L112A, Q257A, Y292A, and N295A receptors). We determined the mutation sites of the AT1 receptor according to ARB, which produced olmesartan derivatives with different interactions and functions toward the AT1 receptor, as previously reported by Zhang et al., since the additional 4-hydroxybenzyl groups of R781253 and R794847 were predicted to extend to a sub-pocket on the bottom of the AT1 receptor ligand-binding pocket consisting of Leu^112 and Gln^257. In addition, since the biased ligand TRV027 induced changes near the NPxxY motif in TM domain 7 that are related to receptor activation, Tyr^292 and Asn^295 in the AT1 receptor were mutated.
The synthetic rat AT1 receptor gene, which was cloned in the shuttle expression vector pMT-2, was used for expression and mutagenesis, as described previously. COS7 cells (No. CRL-1651, ATCC, Manassas, VA, USA) were cultured in 10% fetal bovine serum (FBS) and penicillin- and streptomycin-supplemented Dulbecco’s modified Eagle’s essential medium (PS-DMEM) in 5% CO2 at 37 °C. In the experiments, cells were grown without a cell-growth supplement. To express the AT1 receptor protein, 10 µg of purified plasmid DNA per 10^7 cells was used in the transfection. […] We then analyzed the parameters in transfected cells. […]
The Kd (nM) values of receptor binding were determined with ^125I-[Sar^1, Ile^8]AngII-binding experiments under equilibrium conditions. Binding kinetics were determined following the methods described in the literature. […] Ang II was determined in the presence of a high concentration (10^−6 M) of unlabeled [Sar^1, Ile^8]. […] The radioactivity trapped on the filters was quantified using an automatic γ-counter. The percentage (%) of specific binding of ^125I-[Sar^1, Ile^8]Ang II was calculated using the following formula: 100 × (% total binding of ^125I-[Sar^1, Ile^8]Ang II—nonspecific binding of ^125I-[Sar^1, Ile^8]Ang II)/(% total binding of ^125I-[Sar^1, Ile^8]Ang II).

[2] = target: T2, AT1 Q257A receptor (Rattus norvegicus, UniProt P25095, Q257A); assay: Immunoblotting of ERK 1/2 activation in COS7 cells overexpressing AT1-Q257A receptor; type: cell-based; conditions: 1 µM ligands or 0.1 µM Ang II, 10 min, n = 5, vs. (-)
T2 construct: expressed in transfected cells; host or cells: COS7
T2 sequence (P25095 1-359 Q257A): T1 sequence (P25095 1-359 L112A) with A112L, Q257A
Description: The synthetic rat AT1 receptor gene, which was cloned in the shuttle expression vector pMT-2, was used for expression and mutagenesis, as described previously. […] In the experiments, cells were grown without a cell-growth supplement. To express the AT1 receptor protein, 10 µg of purified plasmid DNA per 10^7 cells was used in the transfection. Wild-type and mutated AT1 receptors were transiently transfected into cells using Lipofectamine 2000 liposomal reagent (Roche Applied Science, Penzberg, Germany). Cells were plated and grown and were 70–90% confluent at the time of transfection. We incubated plasmid DNA (10 µg)–lipid (10 µL) complexes for 5 min at room temperature and added and incubated the complexes with cells for 24 h. We then analyzed the parameters in transfected cells. […] Transfected cells that had been cultured for 48–72 h were harvested. […]
In in vitro studies, ERK 1/2 activation by 1 µM ligands or 0.1 µM Ang II incubated for 10 min was measured using COS7 cells that overexpressed AT1 wild-type and mutant receptors. ERK activity was measured in cells maintained for 18 h in DMEM containing 0.1% serum. […] We homogenized the cells in lysis buffer plus protease inhibitors and determined the protein concentration using the bicinchoninic acid method. […] The signal was independently quantified by digital image analysis (ImageJ, National Institutes of Health, Bethesda, MD, USA).

Kd [1] [nM] | ERK1/2 activation [2] | SMILES
23 ± 7 |  | CCCc1nc(C(C)(C)O)c(C(=O)O)n1Cc1ccc(-c2cc(Cc3ccc(O)cc3)ccc2-c2nnn[nH]2)cc1 [R781253]
37 ± 12 |  | CCCc1nc(C(C)(C)O)c(C(N)=O)n1Cc1ccc(-c2ccccc2-c2nnn[nH]2)cc1 [R239470]
 | did not change ERK1/2 activation | CCCc1nc(C(C)(C)O)c(C(=O)O)n1Cc1ccc(-c2ccccc2-c2nnn[nH]2)cc1 [Olmesartan, olmesartan]
